Measurements published in patent US20040102325A1, “Phenylpropynyloxypyridine herbicides” (priority 2000, published 2004).

Key:
Format in all cases: in vivo
[1] = tested on: Stellaria; assay: Pre-emergence herbicidal action, Stellaria; set-up: key: 1=total damage; 9=no action; conditions: 1000 g a.i./ha, 4 weeks, scale of nine ratings (1=total damage, 9=no action)
Text: (§1) Monocotyledonous and dicotyledonous test plants are sown in standard soil in pots. Immediately after sowing, an aqueous suspension of the test compounds (prepared from a wettable powder (Example F3, b) according to WO 97/34485) or an emulsion of the test compounds (prepared from an emulsifiable concentrate (Example F1, c) according to WO 97/34485) is applied by spraying at an optimum rate of application (500 litres of water/ha). The test plants are then cultivated in a greenhouse under optimum conditions. After a test duration of 4 weeks, the test is evaluated in accordance with a scale of nine ratings (1=total damage, 9=no action). Ratings of from 1 to 4 (especially from 1 to 3) indicate good to very good herbicidal action. Test plants: Setaria, Panicum, Digitaria, Amaranthus, Stellaria, Veronica.

[2] = tested on: Digitaria; assay: Pre-emergence herbicidal action, Digitaria; set-up: key: 1=total damage; 9=no action; conditions: 1000 g a.i./ha, 4 weeks, scale of nine ratings (1=total damage, 9=no action)
Text: as §1

[3] = tested on: Veronica; assay: Post-emergence herbicidal action, Veronica; set-up: key: 1=total damage; 9=no action; conditions: post-emergence (2- to 3-leaf stage), 1000 g a.i/ha, 2 to 3 weeks, scale of nine ratings (1=total damage, 9=no action)
Experimental: (§2) Monocotyledonous and dicotyledonous test plants are sown in standard soil in pots, and at the 2- to 3-leaf stage are sprayed with an aqueous suspension of the test compounds (prepared from a wettable powder (Example F3, b) according to WO 97/34485) or with an emulsion of the test compounds (prepared from an emulsifiable concentrate (Example F1, c) according to WO 97/34485) at an optimum rate of application of 500 litres of water/ha). The test plants are then grown on in the greenhouse under optimum conditions. After a test duration of 2 to 3 weeks, the test is evaluated in accordance with a scale of nine ratings (1=total damage, 9=no action). Ratings of from 1 to 4 (especially from 1 to 3) indicate good to very good herbicidal action. Test plants: Panicum, Euphorbia, Sida, Amaranthus, Chenopodium, Stellaria, Veronica.

[4] = tested on: Panicum; assay: Post-emergence herbicidal action, Panicum; set-up: key: 1=total damage; 9=no action; conditions: post-emergence (2- to 3-leaf stage), 1000 g a.i/ha, 2 to 3 weeks, scale of nine ratings (1=total damage, 9=no action)
Experimental: as §2

[5] = tested on: Panicum; assay: Pre-emergence herbicidal action, Panicum; set-up: key: 1=total damage; 9=no action; conditions: 1000 g a.i./ha, 4 weeks, scale of nine ratings (1=total damage, 9=no action)
Text: as §1

[6] = tested on: Amaranthus; assay: Pre-emergence herbicidal action, Amaranthus; set-up: key: 1=total damage; 9=no action; conditions: 1000 g a.i./ha, 4 weeks, scale of nine ratings (1=total damage, 9=no action)
Text: as §1

[7] = tested on: Euphorbia; assay: Post-emergence herbicidal action, Euphorbia; set-up: key: 1=total damage; 9=no action; conditions: post-emergence (2- to 3-leaf stage), 1000 g a.i/ha, 2 to 3 weeks, scale of nine ratings (1=total damage, 9=no action)
Experimental: as §2

[8] = tested on: Setaria; assay: Pre-emergence herbicidal action, Setaria; set-up: key: 1=total damage; 9=no action; conditions: 1000 g a.i./ha, 4 weeks, scale of nine ratings (1=total damage, 9=no action)
Text: as §1

[9] = tested on: Chenopodium; assay: Post-emergence herbicidal action, Chenopodium; set-up: key: 1=total damage; 9=no action; conditions: post-emergence (2- to 3-leaf stage), 1000 g a.i/ha, 2 to 3 weeks, scale of nine ratings (1=total damage, 9=no action)
Experimental: as §2

[10] = tested on: Stellaria; assay: Post-emergence herbicidal action, Stellaria; set-up: key: 1=total damage; 9=no action; conditions: post-emergence (2- to 3-leaf stage), 1000 g a.i/ha, 2 to 3 weeks, scale of nine ratings (1=total damage, 9=no action)
Experimental: as §2

[11] = tested on: Sida; assay: Post-emergence herbicidal action, Sida; conditions: post-emergence (2- to 3-leaf stage), 1000 g a.i/ha, 2 to 3 weeks, scale of nine ratings (1=total damage, 9=no action)
Experimental: as §2

[12] = tested on: Veronica; assay: Pre-emergence herbicidal action, Veronica; set-up: key: 1=total damage; 9=no action; conditions: 1000 g a.i./ha, 4 weeks, scale of nine ratings (1=total damage, 9=no action)
Text: as §1

[13] = tested on: Amaranthus; assay: Post-emergence herbicidal action, Amaranthus; set-up: key: 1=total damage; 9=no action; conditions: post-emergence (2- to 3-leaf stage), 1000 g a.i/ha, 2 to 3 weeks, scale of nine ratings (1=total damage, 9=no action)
Experimental: as §2

SMILES	Stellaria, herbicidal action rating [1]	Digitaria, herbicidal action rating [2]	Veronica, herbicidal action rating [3]	Panicum, herbicidal action rating [4]	Panicum, herbicidal action rating [5]	Amaranthus, herbicidal action rating [6]	Euphorbia, herbicidal action rating [7]	Setaria, herbicidal action rating [8]	Chenopodium, herbicidal action rating [9]	Stellaria, herbicidal action rating [10]	Sida, herbicidal action rating [11]	Veronica, herbicidal action rating [12]	Amaranthus, herbicidal action rating [13]
N#CCc1cccc(C#CCOc2ccc(Cl)cn2)c1 [1.007]	1	1	1	2	1	1	2	5	1	6	4	7	1
N#CCc1cccc(C#CCOc2ccc(Br)cn2)c1 [1.008]	4	1	2	7	1	1	2	7	1	4	3	1	1
N#CCc1cccc(C#CCOc2ncc(F)cc2F)c1 [1.009]	3	1	2	2	–	2	1	–	1	2	2	–	1
N#CCc1cccc(C#CCOc2ncc(Cl)cc2F)c1 [1.011]	1	1	2	2	1	1	2	6	1	2	2	1	2
COc1cc(F)cnc1OCC#Cc1cccc(CC#N)c1 [1.015]	1	2	2	1	2	1	1	7	1	1	3	4	1
COc1cc(Cl)cnc1OCC#Cc1cccc(CC#N)c1 [1.016]	1	1	1	2	2	1	1	4	1	1	2	1	1
COc1cc(Br)cnc1OCC#Cc1cccc(CC#N)c1 [1.017]	1	2	2	4	2	1	1	5	1	1	2	2	2
COc1cc(C)cnc1OCC#Cc1cccc(CC#N)c1 [1.022]	2	–	3	6	2	1	2	–	3	4	3	1	3
Cc1ccc(OC(F)F)c(OCC#Cc2cccc(CC#N)c2)n1 [1.024]	1	–	3	–	–	1	2	1	1	1	2	1	1
N#CCc1cccc(C#CCOc2ncc(Cl)cc2OC(F)F)c1 [1.025]	1	2	4	–	1	1	2	1	7	4	3	1	2
COc1cc(Cl)cnc1OCC#Cc1ccccc1 [1.094]	1	–	3	2	–	3	1	–	3	2	2	1	1
